Measurements published in patent US9815878B2, “Use of PEDF-derived polypeptides for preventing and/or ameliorating skin aging” (MacKay Memorial Hospital, priority 2012, dated 2017).

Legend:
[1] = system: dermal collagen; test: Collagen content of UVB-damaged mouse skin, Masson's trichrome staining; assay type: in vivo, nude mice; details: 8-week UVB, then transdermal delivery for 2 weeks
Protocol: (§1) General histology was performed using hematoxylin and eosin (H&E) dye. Deparaffinized skin tissue sections were stained using Masson's Trichrome (Sigma-Aldrich, St. Louis, Mo.) according to the manufacturer's instructions; sections was examined and photographed by a Nikon Eclipse 80i light microscope (original magnification, ×400). For semi-quantitative analysis of collagen area, 10 fields from each slide were randomly selected under the light microscope, and the blue-stained area per entire area of the cross section (mm^2/mm^2) was measured using the Image-Pro Plus 4.5.1 system (Media Cybernetics).
Six-week-old female nude mice (BALB/cAnN.Cg-Foxn1nu/CrlNarl) were irradiated with ultraviolet B (UVB) on the back 5 times a week for an eight-week period using a bank of five UVB lamps (model XL-1000B, Spectrolinker™ apparatus; emission peak: 312 nm), placed about 20 cm above the backs of the animals. During the UVB exposure, the mice were allowed to move freely within the cage. […] The level of BrdU- and vimentin-double positive cells was expressed as the percentage of BrdU- and vimentin-double positive cells per total vimentin-positive cells (the BrdU/Vimentin Labeling Index). […]

[2] = system: dermal fibroblasts; test: Dermal fibroblast proliferation in vivo, BrdU/vimentin staining of skin sections; set-up: species or system mice; details: normal skin, 16 hours after peptide/MN treatment
Protocol: For animal study, BrdU was reconstituted in DMSO as stock (80 mM). 10 μl of BrdU stock mixed with 90 μl of PBS was intraperitoneally injected into mouse at 16 hours prior to euthanasia. Formalin-fixed, paraffin-embedded skin specimens were deparaffinized in xylene and rehydrated in a graded series of ethanol. The specimens were then exposed to 1 N HCl at room temperature for 1 hour for subsequent immunofluorescence study.
BrdU-labeled DNA was detected by polyclonal anti-BrdU antibody and rhodamine-conjugated donkey anti-rabbit IgG. Nuclei were counterstained with Hoechst 33258 (blue).
To investigate whether the transdermal delivery of the present PEDF peptides promotes the proliferation of dermal fibroblast in vivo, mice were intraperitoneally injected with BrdU and euthanized at 16 hours after the PEDF peptide/MN treatment or the vehicle/MN treatment. Skin sections were stained for vimentin (green) and BrdU (red). The level of BrdU- and vimentin-double positive cells was expressed as the percentage of BrdU- and vimentin-double positive cells per total vimentin-positive cells (the BrdU/Vimentin Labeling Index), and the results are summarized in Table 4.

[3] = system: dermal collagen; test: Dermal collagen content, Masson's trichrome stained collagen area in depilated mouse skin; assay type: in vivo, C57BL/6 mice; details: for Collagen Area (fold): ointment plus microneedle (MN), twice a week for two weeks, day 14, normalized with Vehicle/MN; for collagen level (Masson's trichrome sections) versus vehicle/CT: ointment without microneedle treatment (CT)
Protocol: as §1
Collagen is the major matrix component of the dermis and forms a tough fiber framework to provide the elastic property of the skin. This working example investigated whether the present PEDF peptides increase dermal collage content. Mice depilated as described in Example 1 were randomly assigned to several experimental groups and treated as follows. For each mouse, one side of the dorsal midline (about 2 cm^2) received 50 μl of ointment (the 29-mer, 20-mer, or DMSO-containing ointment) and a subsequent microneedle treatment; while the other side of the dorsal midline (about 2 cm^2) received 50 μl of the same ointment without the microneedle treatment. The treatment was given twice a week for two weeks, and the skin was left uncovered and harvested 14 days after the first treatment. Skin specimens were stained with Masson's trichrome stain (blue) for dermal collagen; representative images are provided in FIG. 2. The stained collagen area in the skin was quantified as taught above in the “Materials and Methods” section, and the results were normalized with the area of Vehicle/MN. The level of type I collagen (COL1A1) was investigated by the above-described immunoblot analysis, and the results were normalized with the level of the vehicle/CT group.

Substance	collagen level in the dermis versus UVB/vehicle group (Masson's trichrome, FIG. 5) [1]	BrdU/Vimentin Labeling Index (%) [2]	Collagen Area (fold) [3]	collagen level (Masson's trichrome sections) versus vehicle/CT [3]
Ac-SLGAEQRTESIIHRALYYDLISSPDIHGT-NH2 [29-mer]	significantly enhanced	16.9 ± 1.9 %	1.7 ± 0.14 fold	no significant difference
SLGAEQRTESIIHRALYYDL [20-mer, synthetic peptide corresponding to residues 93-112 of human PEDF]	significantly enhanced	17.3 ± 3.2 %	1.6 ± 0.11 fold	no significant difference
